Results taken from US12268683B2, “Compounds and methods for synergistic activation of M channels” (THE REGENTS OF THE UNIVERSITY OF CALIFORNIA, priority 2018, dated 2025).
“Also recorded” adds a separate entry of the source. Where two headings read alike, the source gives them in different places.

Assays:
KCNQ2/3 = KCNQ2/3 (Homo sapiens, UniProt O43525+O43526); test: TEVC of heteromeric KCNQ2/3 channels expressed in Xenopus laevis oocytes; assay type: cell-based
Excerpt: (§1) cRNA transcripts encoding human KCNA1, KCNQ1, KCNQ2, KCNQ3, KCNQ4, or KCNQ5 were generated by in vitro transcription using the T7 polymerase message machine kit (Thermo Fisher Scientific), after vector linearization, from cDNA sub-cloned into plasmids incorporating X. laevis β-globin 5′ and 3′ UTRs flanking the coding region to enhance translation and cRNA stability. cRNA was quantified by spectrophotometry. Mutant cDNAs were generated by site-directed mutagenesis using a QuikChange kit according to manufacturer's protocol (Stratagene, San Diego, Calif.) and corresponding cRNAs prepared as above. Defolliculated stage V and VI X. laevis oocytes (Ecocyte Bioscience, Austin, Tex.) were injected with Kv channel a subunit cRNAs (10 ng total per oocyte). Oocytes were incubated at 16° C. in Barth's saline solution (Ecocyte) containing penicillin and streptomycin, with daily washing, for 3-5 days prior to two-electrode voltage-clamp (TEVC) recording.
TEVC recording was performed at room temperature with an OC-725C amplifier (Warner Instruments, Hamden, Conn.) and pClamp10.2 software (Molecular Devices, Sunnyvale, Calif.) 3-5 days after cRNA injection as described in the section above. Oocytes were placed in a small-volume oocyte bath (Warner) and viewed with a dissection microscope. Chemicals were sourced from Sigma. Bath solution was (in mM): 96 NaCl, 4 KCl, 1 MgCl2, 1 CaCl2. 10 HEPES (pH 7.6). […] MTX (DMSO), sorbic acid (ethanol), and glutaconic acid (molecular grade H2O) were stored at −20° C. as 1 M stocks. Oleamide was stored as a 1 mM stock in ethanol at 4° C. Palmitic acid was conjugated with bovine serum albumin as a 1 mM stock and stored at −20° C. All compounds were diluted to working concentrations each experimental day. All compounds were introduced to the recording bath via gravity perfusion at a constant flow of 1 ml/min for 3 min prior to recording. Pipettes were of 1-2 MΩ resistance when filled with 3 M KCl. Currents were recorded in response to pulses between −80 and +40 mV at 20 mV intervals, or a single pulse to +40 mV, from a holding potential of −80 mV, to yield current-voltage relationships, current magnitude, and for quantifying activation rate. TEVC data analysis was performed with Clampfit10.2 (Molecular Devices) and Graphpad Prism software (GraphPad, San Diego, Calif., USA); values are stated as mean±SEM. Normalized tail currents were plotted versus prepulse voltage and fitted with a single Boltzmann function: […]
cRNA transcripts encoding human KCNQ2, KCNQ3, KCNQ4, KCNQ5 (Kv7.2-Kv7.5) were generated by in vitro transcription using the T7 polymerase mMessage mMachine kit (Thermo Fisher Scientific), after vector linearization, from cDNA sub-cloned into plasmids incorporating Xenopus laevis β-globin 5′ and 3′ UTRs flanking the coding region to enhance translation and cRNA stability. cRNA was quantified by spectrophotometry. Mutant KCNQ2 and KCNQ3 cDNAs were generated with site-directed mutagenesis using a QuikChange kit according to the manufacturer's protocol (Stratagene, San Diego, Calif.) and corresponding cRNAs prepared as above.

KCNQ5 = KCNQ5 (Homo sapiens, UniProt Q9NR82); test: TEVC of homomeric KCNQ5 expressed in Xenopus oocytes; assay type: cell-based
Excerpt: as §1
TEVC recording was performed at room temperature with an OC-725C amplifier (Warner Instruments, Hamden, Conn.) and pClamp10.2 software (Molecular Devices, Sunnyvale, Calif.) 3-5 days after cRNA injection as described in the section above. Oocytes were placed in a small-volume oocyte bath (Warner) and viewed with a dissection microscope. Chemicals were sourced from Sigma. Bath solution was (in mM): 96 NaCl, 4 KCl, 1 MgCl2, 1 CaCl2. 10 HEPES (pH 7.6). […] MTX (DMSO), sorbic acid (ethanol), and glutaconic acid (molecular grade H2O) were stored at −20° C. as 1 M stocks. Oleamide was stored as a 1 mM stock in ethanol at 4° C. Palmitic acid was conjugated with bovine serum albumin as a 1 mM stock and stored at −20° C. All compounds were diluted to working concentrations each experimental day. All compounds were introduced to the recording bath via gravity perfusion at a constant flow of 1 ml/min for 3 min prior to recording. Pipettes were of 1-2 MΩ resistance when filled with 3 M KCl. Currents were recorded in response to pulses between −80 and +40 mV at 20 mV intervals, or a single pulse to +40 mV, from a holding potential of −80 mV, to yield current-voltage relationships, current magnitude, and for quantifying activation rate. TEVC data analysis was performed with Clampfit10.2 (Molecular Devices) and Graphpad Prism software (GraphPad, San Diego, Calif., USA); values are stated as mean±SEM. Normalized tail currents were plotted versus prepulse voltage and fitted with a single Boltzmann function:
cRNA transcripts encoding human KCNQ2, KCNQ3, KCNQ4, KCNQ5 (Kv7.2-Kv7.5) were generated by in vitro transcription using the T7 polymerase mMessage mMachine kit (Thermo Fisher Scientific), after vector linearization, from cDNA sub-cloned into plasmids incorporating Xenopus laevis β-globin 5′ and 3′ UTRs flanking the coding region to enhance translation and cRNA stability. cRNA was quantified by spectrophotometry. Mutant KCNQ2 and KCNQ3 cDNAs were generated with site-directed mutagenesis using a QuikChange kit according to the manufacturer's protocol (Stratagene, San Diego, Calif.) and corresponding cRNAs prepared as above. Defolliculated stage V and VI Xenopus laevis oocytes (Ecocyte Bioscience, Austin, Tex.) were injected with KCNQ channel α subunit cRNAs (5-10 ng). The oocytes were incubated at 16° C. in Barth's saline solution (Ecocyte) containing penicillin and streptomycin, with daily washing, for 2-5 days prior to two-electrode voltage-clamp (TEVC) recording.
TEVC recording was performed at room temperature using a OC-725C amplifier (Warner Instruments, Hamden, Conn.) and pClamp8 software (Molecular Devices, Sunnyvale, Calif.) 2-5 days after cRNA injection as described in the section above. The oocytes were placed in a small-volume oocyte bath (Warner) and viewed with a dissection microscope. Unless otherwise stated, chemicals were sourced from Sigma. Bath solution was (in mM): 96 NaCl, 4 KCl, 1 MgCl2, 1 CaCl2, 10 HEPES (pH 7.6).

## CS(=O)(=O)N(CC(=O)O)c1cccc(F)c1 [3FMSG]
KCNQ2/3
  effect on KCNQ2/3 gating kinetics: speeded KCNQ2/3 activation and slowed its deactivation
KCNQ2/3; 100 μM, −60 mV
  tau of KCNQ2/3 current decrease during washout: 39 ± 10 s
  tau of KCNQ2/3 current increase during wash-in: 15 ± 3 s
KCNQ2/3; Example 4, read-out: EC50, shift in voltage dependence of KCNQ2/3 activation (ΔV0.5act)
  EC50: 51 ± 21 nM
KCNQ5; Example 4, read-out: EC50 of KCNQ5 activation
  EC50: 171 ± 112 nM

## NCC1(CC(=O)O)CCCCC1 [gabapentin, reference compound]
KCNQ2/3
  effect on KCNQ2/3 activity (in words): potently activated
  effect on KCNQ2/3 gating kinetics: speeded KCNQ2/3 activation and slowed deactivation
  potency on KCNQ2/3, fold more potent than GABA: 200 fold
KCNQ2/3; 1 μM gabapentin
  shift in voltage dependence of KCNQ2/3 activation: −9 mV
KCNQ2/3; after 2 minutes
  washout of effect on KCNQ2/3: < 50%
KCNQ2/3; current at −60 mV, read-out: EC50 for KCNQ2/3 activation
  EC50: 4.2 nM
KCNQ2/3; unclamped oocytes
  shift of membrane potential (EM) of KCNQ2/3-expressing oocytes: > −10 mV
KCNQ2/3; −60 mV
  time to plateau of KCNQ2/3 current augmentation on wash-in: ~2 min
KCNQ2/3; −60 mV, 10 nM
  KCNQ2/3 current fold-increase: 3.5 fold
KCNQ5
  effect on KCNQ5 (in words): activated
KCNQ5; −60 mV
  maximal fold increase in KCNQ5 current: 3 fold
KCNQ5; −60 mV, read-out: EC50 of KCNQ5 activation by gabapentin
  EC50: 1.9 nM

## CCCCCCCCC/C=C/C=O [(E)-2-dodecenal]
KCNQ2/3
  effect on KCNQ2/3 activity (in words): activated KCNQ2/3
KCNQ2/3; 100 nM
  shift in voltage dependence of KCNQ2/3 activation: > 10 mV
KCNQ2/3; wild-type KCNQ2/3, read-out: EC50 of KCNQ2/3 activation by (E)-2-dodecenal
  EC50: 60 ± 20 nM

## NCC(=O)O [glycine, reference compound]
KCNQ2/3
  effect on KCNQ2/3 activity (in words): nor does it activate KCNQ2/3; also recorded: no effect
KCNQ5
  effect on KCNQ5 (in words): no effects

## CC(=O)c1c(O)c(C)c(O)c(Cc2c(O)c3c(c(C(=O)/C=C/c4ccccc4)c2O)OC(C)(C)C=C3)c1O [MTX, mallotoxin]
KCNQ2/3
  effect on KCNQ2/3 gating kinetics: speeded KCNQ2/3 activation and slowed deactivation
KCNQ2/3; 1 μM alone
  effect on KCNQ2/3 at low dose: negligible effects
KCNQ2/3; 100 μM, MTX and palmitic acid 30 μM
  effect on voltage dependence of KCNQ2/3 activation, screen of M. oppositifolius leaf compounds: negative-shifted
KCNQ2/3; +40 mV
  effect on KCNQ2/3 at +40 mV: little effect
KCNQ2/3; MTX 30 μM, 100 mM ion
  relative ion permeability of KCNQ2/3 compared to K+: increased relative permeability of KCNQ2/3 to Na^+ and Cs^+, and decreased permeability to Rb^+
KCNQ2/3; RTG 10 μM, MTX 30 μM, IVA 500 μM, alone or in combination
  shift of V0.5 of KCNQ2/3 activation (ΔV0.5): −17 mV
KCNQ2/3; current at −60 mV, read-out: EC50 of KCNQ2/3 activation
  EC50: 11500 nM
KCNQ2/3; −60 mV
  time to plateau of KCNQ2/3 activation on wash-in: 5 min
KCNQ2/3; −60 mV, 100 μM MTX
  KCNQ2/3 current fold-increase: seven-fold
KCNQ2/3; −60 mV, MTX 30 μM, IVA 500 μM alone or in combination
  KCNQ2/3 current fold-increase: fivefold
KCNQ5; MTX 30 μM
  shift of midpoint voltage of KCNQ5 activation: −14 mV
KCNQ5; −60 mV, 100 μM
  KCNQ5 current fold-increase: eight-fold
KCNQ5; −60 mV, read-out: EC50 of KCNQ5 activation
  EC50: 67100 nM
